In ChEMBL document CHEMBL4419169, “Novel Ferroportin Inhibitors” (2018):

How the values were obtained:
Type in all cases: functional
Mus musculus [1] = test: Prevention of hyperferremia in iron overloaded beta2-microglobulin deficient male mouse assessed as reduction in serum iron level at 60 mg/kg, po measured after 3 hrs relative to control; parameters: scale not given: the % may be the effect or the level left
Mus musculus [2] = test: Induction of hypoferremia in wild type C57BL/6 mouse assessed as decrease in serum iron levels at 30 mg/kg, po measured after 3 hrs post dose; parameters: scale not given: the % may be the effect or the level left
Mus musculus [3] = test: Disease modifying capacity in mouse model of transfusion-independent beta-thalassemia intermedia assessed as decrease in blood reticulocyte counts at 20 mg/kg, po BID for 20 days relative to control; parameters: scale not given: the % may be the effect or the level left
Mus musculus [4] = test: Disease modifying capacity in mouse model of transfusion-independent beta-thalassemia intermedia assessed as decrease in leukocyte counts level at 20 mg/kg, po BID for 20 days relative to control; parameters: scale not given: the % may be the effect or the level left
Mus musculus [5] = test: Prevention of hyperferremia in iron overloaded beta2-microglobulin deficient female mouse assessed as reduction in serum iron level at 60 mg/kg, po measured after 3 hrs relative to control; parameters: scale not given: the % may be the effect or the level left
Mus musculus [6] = test: Disease modifying capacity in mouse model of transfusion-independent beta-thalassemia intermedia assessed as decrease in relative spleen weight at 60 mg/kg, po BID for 20 days relative to control; parameters: scale not given: the % may be the effect or the level left
Mus musculus [7] = test: Disease modifying capacity in mouse model of transfusion-independent beta-thalassemia intermedia assessed as increase in blood erythrocyte counts at 20 mg/kg, po BID for 20 days relative to control
Rattus norvegicus [8] = test: Prevention of iron absorption in anemic Wistar rat model of iron absorption assessed as inhibition of increase in serum iron at 10 mg/kg, po pre-dosed 1 hr before ferrous sulfate dosing and measured 3 hours after iron dosing
Mus musculus [9] = test: Induction of hypoferremia in wild type C57BL/6 mouse assessed as decrease in serum iron levels at 100 mg/kg, po measured after 3 hrs post dose; parameters: scale not given: the % may be the effect or the level left
Mus musculus [10] = test: Disease modifying capacity in mouse model of transfusion-independent beta-thalassemia intermedia assessed as decrease in serum erythropoietin at 20 mg/kg, po BID for 20 days relative to control; parameters: scale not given: the % may be the effect or the level left
Mus musculus [11] = test: Induction of hypoferremia in wild type C57BL/6 mouse assessed as decrease in serum iron levels at 10 mg/kg, po measured after 3 hrs post dose; parameters: scale not given: the % may be the effect or the level left
Mus musculus [12] = test: Disease modifying capacity in mouse model of transfusion-independent beta-thalassemia intermedia assessed as increase in hematocrit levels at 60 mg/kg, po BID for 20 days relative to control
Rattus norvegicus [13] = test: Prevention of iron absorption in anemic Wistar rat model of iron absorption assessed as inhibition of increase in serum iron at 30 mg/kg, po pre-dosed 1 hr before ferrous sulfate dosing and measured 3 hours after iron dosing
Mus musculus [14] = test: Decrease in serum iron in mouse model of transfusion-independent beta-thalassemia intermedia at 60 mg/kg, po BID for 20 days relative to control; parameters: scale not given: the % may be the effect or the level left
Mus musculus [15] = test: Prevention of hyperferremia in iron overloaded beta2-microglobulin deficient female mouse assessed as reduction in serum iron level at 20 mg/kg, po measured after 3 hrs relative to control; parameters: scale not given: the % may be the effect or the level left
Mus musculus [16] = test: Prevention of hyperferremia in iron overloaded beta2-microglobulin deficient male mouse assessed as reduction in serum iron level at 20 mg/kg, po measured after 3 hrs relative to control; parameters: scale not given: the % may be the effect or the level left
Mus musculus [17] = test: Disease modifying capacity in mouse model of transfusion-independent beta-thalassemia intermedia assessed as decrease in leukocyte counts level at 60 mg/kg, po BID for 20 days relative to control; parameters: scale not given: the % may be the effect or the level left
Mus musculus [18] = test: Disease modifying capacity in mouse model of transfusion-independent beta-thalassemia intermedia assessed as decrease in [58Fe] spleen iron content at 20 mg/kg, po BID for 20 days relative to control; parameters: scale not given: the % may be the effect or the level left
Mus musculus [19] = test: Disease modifying capacity in mouse model of transfusion-independent beta-thalassemia intermedia assessed as decrease in bone marrow ROS levels level at 20 mg/kg, po BID for 20 days relative to control; parameters: scale not given: the % may be the effect or the level left
Mus musculus [20] = test: Disease modifying capacity in mouse model of transfusion-independent beta-thalassemia intermedia assessed as increase in hematocrit levels at 20 mg/kg, po BID for 20 days relative to control
Rattus norvegicus [21] = test: Prevention of iron absorption in anemic Wistar rat model of iron absorption assessed as inhibition of increase in serum iron at 3 mg/kg, po pre-dosed 1 hr before ferrous sulfate dosing and measured 3 hours after iron dosing
Mus musculus [22] = test: Disease modifying capacity in mouse model of transfusion-independent beta-thalassemia intermedia assessed as prevention of liver [58Fe] loading at 20 mg/kg, po BID for 20 days relative to control
Mus musculus [23] = test: Disease modifying capacity in mouse model of transfusion-independent beta-thalassemia intermedia assessed as decrease in RDW level at 60 mg/kg, po BID for 20 days relative to control; parameters: scale not given: the % may be the effect or the level left
Mus musculus [24] = test: Disease modifying capacity in mouse model of transfusion-independent beta-thalassemia intermedia assessed as decrease in relative spleen weight at 20 mg/kg, po BID for 20 days relative to control; parameters: scale not given: the % may be the effect or the level left
Mus musculus [25] = test: Disease modifying capacity in mouse model of transfusion-independent beta-thalassemia intermedia assessed as increase in blood erythrocyte counts at 60 mg/kg, po BID for 20 days relative to control
Mus musculus [26] = test: Disease modifying capacity in mouse model of transfusion-independent beta-thalassemia intermedia assessed as prevention of liver [58Fe] loading at 60 mg/kg, po BID for 20 days relative to control
Mus musculus [27] = test: Disease modifying capacity in mouse model of transfusion-independent beta-thalassemia intermedia assessed as decrease in bone marrow ROS levels level at 60 mg/kg, po BID for 20 days relative to control; parameters: scale not given: the % may be the effect or the level left
Mus musculus [28] = test: Disease modifying capacity in mouse model of transfusion-independent beta-thalassemia intermedia assessed as decrease in [58Fe] spleen iron content at 60 mg/kg, po BID for 20 days relative to control; parameters: scale not given: the % may be the effect or the level left
Mus musculus [29] = test: Disease modifying capacity in mouse model of transfusion-independent beta-thalassemia intermedia assessed as decrease in RDW level at 20 mg/kg, po BID for 20 days relative to control; parameters: scale not given: the % may be the effect or the level left
Mus musculus [30] = test: Disease modifying capacity in mouse model of transfusion-independent beta-thalassemia intermedia assessed as decrease in serum erythropoietin at 60 mg/kg, po BID for 20 days relative to control; parameters: scale not given: the % may be the effect or the level left
Mus musculus [31] = test: Decrease in serum iron in mouse model of transfusion-independent beta-thalassemia intermedia at 20 mg/kg, po BID for 20 days relative to control; parameters: scale not given: the % may be the effect or the level left

Question: What does the source list for `O=C(NCc1ncccc1F)c1cnc(C2CN(CCc3nc4ccccc4[nH]3)C2)o1`?
Answer: Activity (Mus musculus [1]): 66%; Activity (Mus musculus [2]): 26%; Activity (Mus musculus [3]): 0%; Activity (Mus musculus [4]): 29%; Activity (Mus musculus [5]): 57%; Activity (Mus musculus [6]): 47%; Activity (Mus musculus [7]): 0%; inhibition in vivo at 10 mg/kg (Rattus norvegicus [8]): 29%; Activity (Mus musculus [9]): 50%; Activity (Mus musculus [10]): 4%; Activity (Mus musculus [11]): 9%; Activity (Mus musculus [12]): 15%; inhibition in vivo at 30 mg/kg (Rattus norvegicus [13]): 57%; Activity (Mus musculus [14]): 69%; Activity (Mus musculus [15]): 27%; Activity (Mus musculus [16]): 29%; Activity (Mus musculus [17]): 55%; Activity (Mus musculus [18]): 13%; Activity (Mus musculus [19]): 13%; Activity (Mus musculus [20]): 0%; inhibition in vivo at 3 mg/kg (Rattus norvegicus [21]): -3%; Activity (Mus musculus [22]): 14%; Activity (Mus musculus [23]): 15%; Activity (Mus musculus [24]): 16%; Activity (Mus musculus [25]): 33%; Activity (Mus musculus [26]): 47%; Activity (Mus musculus [27]): 65%; Activity (Mus musculus [28]): 40%; Activity (Mus musculus [29]): 0%; Activity (Mus musculus [30]): 27%; Activity (Mus musculus [31]): 50%
